This passage reports melting point results from a melting point compilation (Tetko et al.).

For the series the following is noted: a range is the spread between reports.

The melting point is the temperature, or range, at which the solid turns liquid.

Molecule `CCn1cc(C(=O)O)c(=O)c2cc(F)c(N3CCNC(C)C3)c(F)c21` (centres undefined) returned a melting point of 240 °C.

Molecule `Cc1ccc(Cc2ccc(C)cc2)cc1` registered a melting point of 28 to 29 °C.

Turning to `c1ccc(Cn2ccnc2)cc1`, the melting point is 69 to 71 °C.

With `CCN=c1nc(Cl)[nH]c(=NC(C)C)[nH]1`, the melting point lay within 172 to 177 °C.

As to `CCCCCCC=CCCCCCCCC(=O)O`, the melting point is -0.1 to 0.5 °C.

`Cc1nnc(C)s1` showed a melting point of 63 to 65 °C.

`CC(C)(C)OOC(=O)c1ccccc1` gave a melting point of 7 to 8 °C.

Regarding `Cc1cccc(I)c1`, the melting point was -27.2 to -27 °C.

As for `CN1C(=C(O)Nc2ccccn2)C(=O)c2ccccc2S1(=O)=O`, the melting point lay in the range of 198 to 199 °C.

`COC(=O)OC` returned a melting point of 1 to 4 °C.

As to `CCCCCCCCCCCCCCCCCC(=O)OC`, the melting point was in the range of 39.1 to 40 °C.

In turn, `OCc1ccc(Cl)cc1` came in with a melting point of 70 to 75 °C.

The molecule `c1c[nH]cn1` had a melting point of 90 to 90.5 °C.

The molecule `Oc1ccc2cccc(O)c2c1` displayed a melting point of 180 to 182 °C.

`O=Cc1ccccc1C=O` yielded a melting point of 56 to 56.5 °C.

As for `COc1ccc(I)cc1`, the melting point was in the range of 50 to 53 °C.

With `Cc1ccc(OCC(=O)O)cc1`, the melting point is 140 to 141 °C.

As to `Cc1cccc(C(=O)O)c1C`, the melting point is 145 to 146 °C.

As to `N#Cc1cc(Cl)ccc1N`, the melting point was 96 to 97 °C.

`O=Cc1ccc2ccccc2n1` registered a melting point of 68 to 71 °C.

Molecule `C1CCOCC1` registered a melting point of -49 to -45 °C.

On to `O=C(O)CC(S)C(=O)O` (centres undefined), for which the melting point lay in the range of 149 to 152 °C.

Turning to `CC(C(C)(C)C)C(C)(C)C`, the melting point was -39 to -38.7 °C.

`Nc1ccc(Br)cc1Br` showed a melting point of 78 to 80 °C.

In the case of `CCCCC(C)C`, the melting point is -118 °C.

In turn, `COc1ccccc1OC(=O)c1ccccc1` came in with a melting point of 57.5 to 59 °C.

For the molecule `Oc1c(I)cc(I)cc1I`, the melting point was 158 to 160 °C.

Regarding `O=C(O)c1cccc(Oc2ccccc2)c1`, the melting point was 148 to 150 °C.

Turning to `c1ccc(CNCCNCc2ccccc2)cc1`, the melting point was in the range of 24 to 26 °C.

`COC(=O)c1ccc([N+](=O)[O-])cc1` displayed a melting point of 95 to 96 °C.

`O=C(O)CCCc1ccccc1` gave a melting point of 48 to 52 °C.

Turning to `CCOCC`, the melting point is -116 °C.

`CCOC(=O)CC(C)=O` yielded a melting point of -45 to -43 °C.

Consider `O=Cc1ccc(C(F)(F)F)cc1`, for which the melting point lay within 1.5 to 2 °C.

For the molecule `Cc1cc(Cl)nc2ccccc12`, the melting point lay in the range of 55 to 59 °C.

For `Nc1ccc(C(=O)c2ccccc2)cc1`, the melting point lay within 122 to 123 °C.

In turn, `CC(C)(C)c1ccc(C(=O)O)cc1` yielded a melting point of 164 to 166 °C.

`C=C(C)CCC(=C)C`: the melting point is -75.6 to -75 °C.

On to `CC(C)(C)c1ccc(O)c(N)c1`, for which the melting point was in the range of 161 to 163 °C.

Regarding `Nc1cc(Br)ccc1Br`, the melting point was in the range of 51 to 54 °C.

Regarding `Nc1cc(Cl)cc(Cl)c1`, the melting point lay within 51 to 53 °C.

In turn, `O=C(c1ccccc1)c1ccncc1` gave a melting point of 70 to 72 °C.

Turning to `N#CCCCCC#N`, the melting point is 1 to 2 °C.

For the molecule `CNC(C)=O`, the melting point lay within 27 to 28 °C.

Take `O=C(O)C(=Cc1ccccc1)c1ccccc1`: the melting point fell in the range of 171 to 172 °C.

As for `Cc1cc(C)c(O)c(C)c1`, the melting point was 72 to 73 °C.

Regarding `Cc1n[nH]c(=O)[nH]c1=O`, the melting point fell in the range of 211 to 213 °C.

In turn, `c1ccc2c(c1)c1ccccc1c1ccccc21` returned a melting point of 196 to 199 °C.

Molecule `CCCCC(C)(C)C` had a melting point of -121 °C.

With `O=C1CCCC1`, the melting point was -51.9 to -51 °C.

`O=C(O)Cc1sc(-c2ccccc2)nc1-c1ccc(Cl)cc1` yielded a melting point of 161 to 162 °C.

In the case of `Cc1cc(-c2ccc(N)c(C)c2)ccc1N`, the melting point lay in the range of 130 to 132 °C.

In turn, `Nc1cccc2c1C(=O)c1ccccc1C2=O` registered a melting point of 250 to 254 °C.

Regarding `Cc1ncc[nH]1`, the melting point was 143 to 144 °C.

Turning to `FC(Br)(Br)Br`, the melting point is -74 to -73.6 °C.

`OC/C=C\CO` had a melting point of 4 to 7 °C.

With `COc1ccc(Cc2nccc3cc(OC)c(OC)cc23)cc1OC`, the melting point was 147 to 148 °C.

For `CC(C)(C)c1ccccc1`, the melting point was -59.5 to -57.8 °C.

Take `Clc1ccc(C(c2ccc(Cl)cc2)C(Cl)(Cl)Cl)cc1`: the melting point was in the range of 108 to 110 °C.

Molecule `Clc1ccc(Cl)s1` yielded a melting point of -41 to -40.5 °C.

Consider `Oc1ccccc1-c1nc2ccccc2s1`, for which the melting point lay in the range of 131 to 132 °C.

`COc1cc(C=O)cc(OC)c1` returned a melting point of 46 to 47 °C.

For `CCCCCCCCC#CCCCCCCCC(=O)O`, the melting point lay in the range of 45 to 48 °C.

`O=C(O)Cc1ccc(Br)cc1`: the melting point was 116 to 117 °C.

The molecule `O=[N+]([O-])c1c(Cl)cc(Cl)cc1Cl` showed a melting point of 71 to 72 °C.

As for `ClCCCCCl`, the melting point is -38 to -37 °C.

Molecule `O=[N+]([O-])c1ccc2c(c1)Cc1ccccc1-2` gave a melting point of 156 to 157 °C.

Molecule `CCCCCCCCCCCCCC(=O)O` returned a melting point of 53.9 to 55.1 °C.

`COc1ccccc1C(=O)O` returned a melting point of 99 to 101 °C.

`CCCOc1ccccc1` yielded a melting point of -28 to -27 °C.

On to `Cn1c(=O)ccc2ccccc21`, for which the melting point was in the range of 74 to 75 °C.

`NCc1cccnc1` returned a melting point of -21.1 to -21 °C.

The molecule `CCCCCCBr` gave a melting point of -85 to -84.7 °C.

Take `Cc1c[nH]c(=O)[nH]c1=O`: the melting point is 316 to 317 °C.

`O=S(=O)(Cl)c1ccccc1` had a melting point of 14.5 to 15 °C.

For `O=C1CCCCCN1`, the melting point was in the range of 69 to 70 °C.

`CC(=O)NC(=O)CN` came in with a melting point of 138 to 142 °C.

Molecule `CN1CC=C(c2ccccc2)CC1` displayed a melting point of 38.5 to 40 °C.

The molecule `O=C(O)C(S)C(S)C(=O)O` (centres undefined) came in with a melting point of 193 to 197 °C.

With `NC(=S)NS(=O)(=O)c1ccc(N)cc1`, the melting point fell in the range of 179 to 182 °C.

`COc1ccccc1-c1ccccc1` gave a melting point of 29 to 31 °C.

Take `ClCCCl`: the melting point was -36 to -35 °C.

For `C=CC(C)(C)C`, the melting point is -115 °C.

For the molecule `Cc1ccccc1Cl`, the melting point is -36 to -35 °C.

As to `Sc1ncc[nH]1`, the melting point lay in the range of 225 to 230 °C.

As for `O=C(O)Cc1ccc(-c2ccccc2)cc1`, the melting point was 160 to 161 °C.

`OCc1ccccc1O` yielded a melting point of 85 to 87 °C.

Regarding `CCOc1cc(C=O)ccc1O`, the melting point is 77 to 77.5 °C.

`Cc1ccnc(N)c1` gave a melting point of 99 to 100 °C.

The molecule `Cc1ccc(S(N)(=O)=O)cc1` showed a melting point of 138 to 139 °C.

As for `Cc1cc(Cl)nc(Cl)n1`, the melting point is 46 to 46.5 °C.

Molecule `Cc1c(C(=O)O)cnn1-c1ccccc1` yielded a melting point of 167 to 168 °C.

In the case of `Nc1c(F)c(F)cc(F)c1F`, the melting point fell in the range of 31 to 31.5 °C.

`CC(=O)c1cccc([N+](=O)[O-])c1`: the melting point was 78 to 81 °C.

For the molecule `FC(F)F`, the melting point was -160 to -155 °C.

In turn, `IC(I)I` gave a melting point of 119 to 122 °C.

In turn, `OCC(Br)(Br)Br` gave a melting point of 79 to 81 °C.

For the molecule `COc1cccc(C(C)=O)c1`, the melting point was -8 to -7 °C.

In the case of `Cc1ncc([N+](=O)[O-])n1C`, the melting point was 137 to 140 °C.

As to `C1CC1`, the melting point is -128 to -127 °C.

The molecule `O=C(O)CC(O)C(=O)O` (centres undefined) displayed a melting point of 130 to 132 °C.

The molecule `CCn1c2ccccc2c2ccccc21` came in with a melting point of 68 to 69 °C.

Regarding `C=CCn1c(=O)n(CC=C)c(=O)n(CC=C)c1=O`, the melting point was 20.5 to 24 °C.

`Cc1ccc(O)c(C(=O)O)c1` gave a melting point of 151 to 153 °C.

In the case of `O=C(O)Cc1ccccc1Cl`, the melting point lay in the range of 95 to 96 °C.

Turning to `O=Cc1cc([N+](=O)[O-])ccc1O`, the melting point is 125 to 129 °C.

Regarding `Clc1cc(Cl)cc(Cl)c1`, the melting point lay in the range of 63.4 to 65 °C.

The molecule `c1ccc(CNc2ncnc3nc[nH]c23)cc1` returned a melting point of 231 °C.

As to `ICCI`, the melting point is 80 to 83 °C.

Molecule `CC(=O)Oc1cccc2ccccc12` yielded a melting point of 44.5 to 45 °C.

In the case of `O=C(O)C(F)(F)C(F)(F)C(=O)O`, the melting point lay in the range of 115 to 119 °C.

For the molecule `CC(=O)Nc1ccc(Cl)cc1`, the melting point lay in the range of 178 to 179 °C.

`Cc1c2ccccc2cc2ccccc12` registered a melting point of 78 to 81.5 °C.

For the molecule `CC(C)c1ccccc1O`, the melting point lay within 15 to 16 °C.

Regarding `CCOC=C(C#N)C#N`, the melting point was in the range of 65 to 66 °C.

In turn, `Clc1ccc2ccccc2n1` showed a melting point of 36 to 38 °C.

In turn, `COP(=S)(OC)SCn1nnc2ccccc2c1=O` yielded a melting point of 72 to 73 °C.

Molecule `Cc1ccc(OC(=O)c2ccccc2)cc1` returned a melting point of 70 to 71.5 °C.

`CCCCCCCCCCCCCCCCCCCCCC`: the melting point was in the range of 42 to 45 °C.

Regarding `O=C(O)c1cccc(I)c1`, the melting point is 187 to 188 °C.

For the molecule `CCOc1ccc(I)cc1`, the melting point was in the range of 28 to 29 °C.

Molecule `NC(=O)c1ccccc1N` gave a melting point of 108 to 113 °C.

Regarding `Oc1cccc(Br)c1`, the melting point lay within 30 to 33 °C.

Take `O=C(O)CI`: the melting point was 81 to 82.5 °C.

`CC(=O)N[C@@H](CS)C(=O)O` returned a melting point of 110 °C.

`C[C@H]1CC[C@@H](O)CC1`: the melting point is -10 to -9.2 °C.

As to `NC(=O)c1c(F)c(F)c(F)c(F)c1F`, the melting point was 147 to 148 °C.

Consider `CCCCCCCO`, for which the melting point was -36 to -33.2 °C.

`CC(C)CCCC(C)C` displayed a melting point of -103 °C.

For the molecule `Cc1cc(C)c(C(=O)O)c(C)c1`, the melting point fell in the range of 152 to 154 °C.

Turning to `OCc1c(F)c(F)c(F)c(F)c1F`, the melting point lay in the range of 34 to 37.5 °C.

`OC(COc1ccccc1)COc1ccccc1` yielded a melting point of 81.5 to 82 °C.

Regarding `CCC#CCCC`, the melting point was -131 to -130 °C.

Regarding `N#Cc1ccccc1C(N)=O`, the melting point lay within 172 to 173 °C.

Regarding `O=C(O)c1ccc([N+](=O)[O-])cc1C(=O)O`, the melting point was 162 to 163 °C.

`O=c1[nH]c(=O)c2nccnc2[nH]1` gave a melting point of 348 °C.

As to `Nc1ccc(S(=O)(=O)Nc2ccccn2)cc1`, the melting point is 190 to 192 °C.

Molecule `CC(=O)Oc1ccccc1[N+](=O)[O-]` had a melting point of 40 to 40.5 °C.

`CC(C)(C)c1ccc(O)c(O)c1` came in with a melting point of 54.3 to 55 °C.
